# Assay results taken from patent publication US20130338106A1, “COMPOUNDS INHIBITING LEUCINE-RICH REPEAT KINASE ENZYME ACTIVITY” (priority 2011, published 2013).
# Molecular target: T1, LRRK2 G2019S mutant kinase (Homo sapiens, UniProt Q5S007, G2019S)
# T1 construct: GST; purchased Invitrogen PV4882
# Experiment: LRRK2 G2019S LanthaScreen TR-FRET kinase assay
# Format: biochemical
# Settings: LRRK2 G2019S GST-tagged protein, 100 μM ATP, LRRKtide substrate; read-out: IC50 (potency)
# Description: Activity of compounds against LRRK2 G2019S mutant kinase function was tested in a LANTHAScreen® assay as follows: Compounds were diluted in 100% DMSO to the desired test concentrations in white, low-volume 384-well plates (PerkinElmer ProxiPlate® PN: 6008280). TR-FRET kinase reactions (10 μL) were performed with 75 nM Fluorescein-ERM (LRRKtide, Invitrogen, PN:PV4901) substrate in a final assay buffer containing 100 μM ATP and 2 mM DTT diluted in commercially available Kinase Buffer S (Invitrogen PN: PV5213). The final solvent concentration in the assay was 1% DMSO. Reactions were initiated with the addition of 10 ng/well of LRRK2 02019S, GST-tagged protein (Invitrogen PN: PV4882). After incubation of the foil sealed reaction plates at room temperature with low speed mixing for 1 hour, the kinase reaction was stopped and the amount of substrate phosphorylation was detected by addition of 10 μL of 10 mM EDTA and 2 nM Tb-anti-pERM (pLRRKtide antibody, Invitrogen, PN: PV4898) antibody in TR-FRET dilution buffer (Invitrogen PN: PV3574). After a 30 minute incubation at room temperature with low speed mixing, foil seals were removed and measurements were obtained on a PerkinElmer EnVision with excitation 340 nm, emission 520 nm (channel 1): 495 nm (channel 2) settings. Generation of raw data and workup of data to derive the IC50 (potency) and maximal inhibition at concentrations tested were performed using Merck's Assay Data Analyzer (ADA) software.
# T1 sequence (Q5S007 whole entry G2019S): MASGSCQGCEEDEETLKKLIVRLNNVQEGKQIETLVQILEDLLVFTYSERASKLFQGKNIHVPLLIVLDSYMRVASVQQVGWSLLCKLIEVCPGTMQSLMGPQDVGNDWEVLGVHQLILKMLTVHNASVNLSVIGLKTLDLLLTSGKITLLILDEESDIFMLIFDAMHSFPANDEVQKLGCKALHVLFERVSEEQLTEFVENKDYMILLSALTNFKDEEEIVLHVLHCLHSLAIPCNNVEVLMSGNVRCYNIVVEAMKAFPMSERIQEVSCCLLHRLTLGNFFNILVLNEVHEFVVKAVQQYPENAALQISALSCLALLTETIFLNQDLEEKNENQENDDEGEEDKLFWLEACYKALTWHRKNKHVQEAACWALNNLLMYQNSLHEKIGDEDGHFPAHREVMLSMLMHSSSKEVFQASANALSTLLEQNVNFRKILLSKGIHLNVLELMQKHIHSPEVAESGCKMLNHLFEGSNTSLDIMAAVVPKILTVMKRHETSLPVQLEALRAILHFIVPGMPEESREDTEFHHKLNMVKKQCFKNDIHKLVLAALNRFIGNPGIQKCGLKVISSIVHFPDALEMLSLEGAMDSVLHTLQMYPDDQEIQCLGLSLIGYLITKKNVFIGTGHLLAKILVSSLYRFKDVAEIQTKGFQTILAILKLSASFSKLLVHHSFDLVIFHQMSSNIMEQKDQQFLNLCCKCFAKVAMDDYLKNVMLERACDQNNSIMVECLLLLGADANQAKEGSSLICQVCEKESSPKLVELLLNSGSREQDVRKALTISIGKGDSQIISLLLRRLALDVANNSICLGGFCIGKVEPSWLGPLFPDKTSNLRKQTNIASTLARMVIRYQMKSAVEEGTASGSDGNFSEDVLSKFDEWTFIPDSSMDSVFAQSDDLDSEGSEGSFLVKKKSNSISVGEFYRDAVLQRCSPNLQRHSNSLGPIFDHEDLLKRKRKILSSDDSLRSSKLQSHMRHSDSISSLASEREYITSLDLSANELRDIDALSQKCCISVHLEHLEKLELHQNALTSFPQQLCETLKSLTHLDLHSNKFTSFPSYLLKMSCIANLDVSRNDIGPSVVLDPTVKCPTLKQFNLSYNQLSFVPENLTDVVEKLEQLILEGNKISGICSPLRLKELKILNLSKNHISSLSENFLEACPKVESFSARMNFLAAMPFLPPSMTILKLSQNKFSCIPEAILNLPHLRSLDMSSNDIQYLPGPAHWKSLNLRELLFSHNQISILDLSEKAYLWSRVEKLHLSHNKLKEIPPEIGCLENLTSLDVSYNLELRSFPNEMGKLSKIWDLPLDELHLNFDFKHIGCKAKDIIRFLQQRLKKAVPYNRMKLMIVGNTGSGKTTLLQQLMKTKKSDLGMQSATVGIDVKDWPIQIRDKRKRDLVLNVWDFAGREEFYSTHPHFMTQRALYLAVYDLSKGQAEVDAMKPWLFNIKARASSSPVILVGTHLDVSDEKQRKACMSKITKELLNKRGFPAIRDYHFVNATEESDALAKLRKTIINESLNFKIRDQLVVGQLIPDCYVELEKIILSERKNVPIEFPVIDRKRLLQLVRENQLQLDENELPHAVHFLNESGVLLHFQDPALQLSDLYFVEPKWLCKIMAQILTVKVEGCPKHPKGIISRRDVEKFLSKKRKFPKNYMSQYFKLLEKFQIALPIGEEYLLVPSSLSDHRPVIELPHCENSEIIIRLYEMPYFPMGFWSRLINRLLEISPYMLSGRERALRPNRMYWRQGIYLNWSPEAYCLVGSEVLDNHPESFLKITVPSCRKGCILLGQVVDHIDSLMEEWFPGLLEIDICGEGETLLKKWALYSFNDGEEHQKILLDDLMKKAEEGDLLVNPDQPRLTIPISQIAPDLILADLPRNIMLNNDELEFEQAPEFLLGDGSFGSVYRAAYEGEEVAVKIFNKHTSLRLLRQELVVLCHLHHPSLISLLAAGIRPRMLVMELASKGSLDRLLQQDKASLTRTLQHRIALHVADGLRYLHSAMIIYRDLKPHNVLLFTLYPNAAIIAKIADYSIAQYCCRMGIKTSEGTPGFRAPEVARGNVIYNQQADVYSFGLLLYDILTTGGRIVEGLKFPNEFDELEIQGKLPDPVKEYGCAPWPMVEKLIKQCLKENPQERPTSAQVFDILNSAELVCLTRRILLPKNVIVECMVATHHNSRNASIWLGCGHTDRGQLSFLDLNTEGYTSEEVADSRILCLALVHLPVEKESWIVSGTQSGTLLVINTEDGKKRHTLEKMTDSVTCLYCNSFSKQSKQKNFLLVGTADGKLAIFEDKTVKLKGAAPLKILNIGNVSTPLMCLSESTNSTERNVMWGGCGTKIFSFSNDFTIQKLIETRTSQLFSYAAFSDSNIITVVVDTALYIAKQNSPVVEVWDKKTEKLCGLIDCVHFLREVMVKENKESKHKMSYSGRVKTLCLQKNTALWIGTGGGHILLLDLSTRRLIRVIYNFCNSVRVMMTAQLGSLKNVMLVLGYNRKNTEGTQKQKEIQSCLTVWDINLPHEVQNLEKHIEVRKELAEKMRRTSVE
row,SMILES,IC50 [nM]
1,"CC1(C)CC(=O)c2c(SCCCO)sc(-c3cc[nH]n3)c2C1 [Example 11, 3-[(3-Hydroxypropyl)sulfanyl]-6,6-dimethyl-1-(1H-pyrazol-3-yl)-6,7-dihydro-2-benzothiophen-4(5H)-one]",200
2,"CSc1sc(-c2cc(C)[nH]n2)c2c1C(=O)CC(C)(C)C2 [Example 88, 6,6-Dimethyl-1-(5-methyl-1H-pyrazol-3-yl)-3-(methylsulfanyl)-6,7-dihydro-2-benzothiophen-4(5H)-one]",1400
3,CC(C)NC(=O)n1ccc(-c2sc(SC3CCCC3)c3c2CC(C)(C)CC3=O)n1 [Example 57],1400
4,"CCSc1sc(-c2cc[nH]n2)c2c1C(=O)CC(C)(C)C2 [Example 8, 3-(Ethylsulfanyl)-6,6-dimethyl-1-(1H-pyrazol-3-yl)-6,7-dihydro-2-benzothiophen-4(5H)-one]",180
5,"CNC(=O)n1ccc(-c2sc(SC3CCCC3)c3c2CC(C)(C)CC3=O)n1 [Example 72, 3-[3-(Cyclopentylsulfanyl)-6,6-dimethyl-4-oxo-4,5,6,7-tetrahydro-2-benzothiophen-1-yl]-N-methyl-1H-pyrazole-1-carboxamide]",1700
6,"CCCC(=O)n1ccc(-c2sc(SC3CCCC3)c3c2CC(C)(C)CC3=O)n1 [Example 76, 1-(1-Butanoyl-1H-pyrazol-3-yl)-3-(cyclopentylsulfanyl)-6,6-dimethyl-6,7-dihydro-2-benzothiophen-4(5H)-one]",980
7,"O=C1CCCc2c(-c3cc[nH]n3)sc(NC3CCCC3)c21 [Example 4, 3-(Cyclopentylamino)-1-(1H-pyrazol-3-yl)-6,7-dihydro-2-benzothiophen-4(5H)-one]",160
8,"CN(C)c1sc(-c2cc[nH]n2)c2c1C(=O)CC(C)(C)C2 [Example 41, 3-(Dimethylamino)-6,6-dimethyl-1-(1H-pyrazol-3-yl)-6,7-dihydro-2-benzothiophen-4(5H)-one]",2000
9,"O=C1CCCc2c(-c3cc[nH]n3)sc(SC3CCCC3)c21 [Example 3, 3-(Cyclopentylsulfanyl)-1-(1H-pyrazol-3-yl)-6,7-dihydro-2-benzothiophen-4(5H)-one]",430
10,"CCCCCCSc1sc(-c2cc[nH]n2)c2c1C(=O)CC(C)(C)C2 [Example 34, 3-(Hexylsulfanyl)-6,6-dimethyl-1-(1H-pyrazol-3-yl)-6,7-dihydro-2-benzothiophen-4(5H)-one]",1300
11,"CC1(C)CC(=O)c2c(SCCCCl)sc(-c3cc[nH]n3)c2C1 [Example 33, 3-[(3-Chloropropyl)sulfanyl]-6,6-dimethyl-1-(1H-pyrazol-3-yl)-6,7-dihydro-2-benzothiophen-4(5H)-one]",120
12,"CSc1sc(-c2cc[nH]n2)c2c1C(=O)CC(C)(C)C2 [Example 5, 6,6-Dimethyl-3-(methylsulfanyl)-1-(1H-pyrazol-3-yl)-6,7-dihydro-2-benzothiophen-4(5H)-one]",230
13,"CC1(C)CC(=O)c2c(SCc3ccco3)sc(-c3cc[nH]n3)c2C1 [Example 15, 3-[(Furan-2-ylmethyl)sulfanyl]-6,6-dimethyl-1-(1H-pyrazol-3-yl)-6,7-dihydro-2-benzothiophen-4(5H)-one]",450
14,"CC1(C)CC(=O)c2c(SC3CCCC3)sc(-c3ccn(C(=O)Nc4ccc(Cl)cc4)n3)c2C1 [Example 62, N-(4-Chlorophenyl)-3-[3-(cyclopentylsulfanyl)-6,6-dimethyl-4-oxo-4,5,6,7-tetrahydro-2-benzothiophen-1-yl]-1H-pyrazole-1-carboxamide]",86
15,"CC(=O)NCCCCCCSc1sc(-c2cc[nH]n2)c2c1C(=O)CC(C)(C)C2 [Example 23, N-(6-{[5,5-Dimethyl-7-oxo-3-(1H-pyrazol-3-yl)-4,5,6,7-tetrahydro-2-benzothiophen-1-yl]sulfanyl}hexyl)acetamide]",180
16,"CCCNc1sc(-c2cc[nH]n2)c2c1C(=O)CC(C)(C)C2 [Example 35, 6,6-Dimethyl-3-(propylamino)-1-(1H-pyrazol-3-yl)-6,7-dihydro-2-benzothiophen-4(5H)-one]",150
